Measurements: ChEMBL document CHEMBL1151675, “Novel marine di-Z-carotenoids: cucumariaxanthins A, B, and C from the sea cucumber Cucumaria japonica” (J Nat Prod, 1996)

What was measured:
Assay type in all cases: cell-based
Settings in all cases: read-out: Activity
[1] = Cytotoxicity against human Raji cells assessed as cell viability at 1000 molar ratio
[2] = Cytotoxicity against human Raji cells assessed as cell viability at 500 molar ratio
[3] = Cytotoxicity against human Raji cells assessed as cell viability at 100 molar ratio
[4] = Cytotoxicity against human Raji cells assessed as cell viability at 10 molar ratio

SMILES | viability at 1000 molar ratio [1] | viability at 500 molar ratio [2] | viability at 100 molar ratio [3] | viability at 10 molar ratio [4]
CC(=C/C=C/C(C)=C/C=C/C=C(C)/C=C/C=C(C)\C=C\[C@H]1[C@H](C)C(=O)CCC1(C)C)/C=C/[C@H]1[C@H](C)[C@@H](O)CCC1(C)C | 70% | > 80% | > 80% | > 80%
CC(=C/C=C/C(C)=C/C=C/C=C(C)/C=C/C=C(C)\C=C\[C@H]1[C@H](C)[C@@H](O)CCC1(C)C)/C=C/[C@H]1[C@H](C)[C@@H](O)CCC1(C)C | 70% | 70% | > 80% | > 80%
CC1=C(/C=C/C(C)=C/C=C/C(C)=C/C=C/C=C(C)/C=C/C=C(C)/C=C/C2=C(C)CCCC2(C)C)C(C)(C)CCC1 [BETA CAROTENE] | 70% | > 80% | > 80% | > 80%
CC(=C/C=C/C(C)=C/C=C/C=C(C)/C=C/C=C(C)\C=C\[C@H]1[C@H](C)C(=O)CCC1(C)C)/C=C/[C@H]1[C@H](C)C(=O)CCC1(C)C [CUCUMARIAXANTHIN A] | 70% | > 80% | > 80% | > 80%
